{
  "source": "ChEMBL document CHEMBL3813614",
  "about": "(ACS Med Chem Lett, 2016)",
  "format_in_all_cases": "ADME, organism-based",
  "key": {"[1]": {"assay": "Ratio of unbound fraction in CD1 mouse brain to plasma at 25 mg/kg, po after 6 hrs by LC-MS/MS analysis", "conditions": "read-out: K(p,uu,brain)"}, "[2]": {"assay": "Ratio of unbound fraction in CD1 mouse brain to plasma at 50 mg/kg, po after 6 hrs by LC-MS/MS analysis", "conditions": "read-out: K(p,uu,brain)"}, "[3]": {"assay": "AUC in CD1 mouse at 25 mg/kg, po", "conditions": "in vivo"}, "Brain [4]": {"test_system": "Brain", "assay": "Unbound fraction in CD1 mouse brain at 25 mg/kg, po administered as single dose measured at 6 hrs post dose by LC-MS/MS analysis", "conditions": "in vivo"}, "Brain [5]": {"test_system": "Brain", "assay": "Unbound fraction in CD1 mouse brain at 25 mg/kg, po administered as single dose measured at 1 hr post dose by LC-MS/MS analysis", "conditions": "in vivo"}},
  "data": [
    {"compound": "COC(C)(C)c1cc2nc(-c3cnc(N)nc3)nc(N3CCOCC3)c2s1", "values": [
      {"measurement": "Kp uu at 6 h", "setting": "[1]", "result": 0.4}
    ]},
    {"compound": "COC1(c2sc3c(N4CCOCC4)nc(-c4cnc(N)nc4)nc3c2C)COC1", "values": [
      {"measurement": "Kp uu at 6 h", "setting": "[2]", "result": 0.4}
    ]},
    {"compound": "CC1(C)OCCn2c1nc1c(N3CCOCC3)nc(-c3cnc(N)nc3)nc12", "note": "[PAXALISIB]", "values": [
      {"measurement": "AUC", "setting": "[3]", "result": 47, "unit": "µM·h"},
      {"measurement": "Drug uptake(free)", "setting": "Brain [4]", "result": 0.16, "unit": "µM"},
      {"measurement": "Drug uptake(free)", "setting": "Brain [5]", "result": 0.32, "unit": "µM"}
    ]}
  ]
}
